The nature of assay [1]: Intranasal PZ6005 in diet-induced obese mice: body weight, tissue mass and fat mass. It is filed as in vivo, mouse. The procedure: Metabolic measurements were undertaken in the Melbourne Mouse Metabolic Phenotyping Platform (The University of Melbourne, Australia). Glucose tolerance tests were performed on 6 h fasted conscious mice respectively by injecting D-glucose (2 mg/g of lean body mass and 1 mg/g lean mass for db/db and HFHS+STZ mice) into the peritoneal cavity and measuring glucose in tail blood immediately before and at 15, 30, 45, 60, 90 and 120 min after injection using an Accu-Check glucometer (Roche, Germany). The areas under glucose excursion curves were determined and expressed as mmol/1×min. Fasted (12 h fast) plasma insulin or glucose levels were determined using a Rat/Mouse Insulin ELISA (EZRMI-13K, Merck Millipore, CA) or an Accu-Check glucometer respectively. The HOMA-IR was calculated using the equation [(glucose×insulin)/405]. Adiposity was measured using TD-NMR minispec (Bruker Optics Inc., Billerica, MA).
Conscious mice were restrained by scruffing and inverted parallel to the floor with the chin at ˜180-degree angle with the neck. Using a 10 μL tip, a pipettor was loaded with 5 μl of vehicle (ddH2O) or fluorosamine (1 mg/animal in 20 μl or 5 mg/animal in 20 μl). The tip of the filled pipettor was placed near the left nostril at a 45-degree angle, and the drug was ejected to form a small 5 μl droplet at tip for the mouse to inhale. Immediately after the mouse inhaled the first droplet the remaining solution was ejected to form another small droplet for the mouse to inhale through the same nostril. The mouse was held in this position for 15 seconds before the procedure was repeated in the right nostril. The mouse was returned to the cage for 2 minutes and the process was repeated so that each mouse received four droplets of 5 μl each, delivering a total of 20 μl of solution. All drugs were administered delivered approximately 1 h before lights off […].
Changes in body weight of 12-week-HFHS-diet-fed obese mice during 14 days of intranasal administration of either vehicle or PZ6005 (1 or 5 mg/animal/day). Intranasal PZ6005 treatment induce weight loss in a dose-dependent manner, as assessed by significant differences in weight changes across groups. […] At the end of the experiment, mice in the highest dose of PZ6005 treatment had lost […] and those in the 1 mg treatment had lost […], whereas control littermates maintained at 3.57±1.28% of body weight (FIG. 10a).
To determine the influence of intranasal PZ6005-mediated attenuated neurofibrosis on tissue-specific adiposity and body composition, peripheral tissues and fat mass of the mice were weighed following the 14-day administration. […] Moreover, the reduction in overall fat mass depended upon the doses of PZ6005.

A further assay deals with CSPG-ECM. The experiment in a line: I.C.V. fluorosamine in obese mice: WFA immunostaining of CSPG-ECM in brain areas. It is filed as in vivo, mouse. The procedure:
For detection of aggrecan, GFP, HABP, parvalbumin, mCherry, versican, tenascin-C, HAPLN1, neurocan, phosphacan, brevican, WFA and WFA-FITC sections were incubated at room temperature for 1 h in blocking buffer (0.3% Triton X-100, 5% normal goat serum, Gibco, ThermoFisher, MA, 0.02% sodium azide) and then overnight at 4° C. in 1% blocking buffer containing either rabbit anti-aggrecan (1:1000, AB1031, Millipore, MA), chicken anti-GFP (1:2000; ab13970, Abcam, Cambridge, UK), Biotinylated HABP (1:100, 385911, Burlington, MA), sheep anti-parvalbumin (1:1000), in house), rabbit anti-dsRed (1:2000, 600-401-379, Rockland, PA), rabbit anti-versican (1:1000, AB1033, Millipore, MA), tenascin-C (1:500, M1-B4, Developmental Studies Hybridoma Bank, Iowa), HAPLN1 (1:500, 9/30/8-A-4, Developmental Studies Hybridoma Bank, Iowa), neurocan (1:300, 1F6-S, Developmental Studies Hybridoma Bank, Iowa), phophacan (1:300, 3F8, Developmental Studies Hybridoma Bank, Iowa), brevican (1:500, 610895, BD Transduction Laboratories), biotinylated WFA (1:2000, L1516; Sigma-Aldrich, MO), WFA-FITC (1:2000, FL-1351-2, Vector Laboratories, CA), rabbit anti PGP9.5 (1:1000, 14730-1-AP, Proteintech, IL), guinea pig anti AgRP (1:500, AS506, Antibodies Australia, Melbourne, AUS). […]
All image quantification was performed in Image J (NIH) software (NIH, MA). […] To quantify area and intensity of the CSPG-ECM within each brain region (ARC, VMH or RSG cortex) images were thresholded and binarized to create a region of interest (ROI) mask of only the CSPG-ECM. For each brain area, CSPG-ECM ROI area (μm^2) and intensity (sum of all pixel intensities within the ROI) was calculated. […]

Setting [2] is: I.N. 1 mg/animal/day, 14 days, obese mice.
The mark [3] stands for this setting: I.N. highest dose (5 mg/animal/day), 14 days, obese mice.

“Also recorded” adds a separate entry of the source.

With `CC(=O)NC1C(OC(C)=O)OC(COC(C)=O)[C@@H](F)C1OC(C)=O` (stereo partly shown) [fluorosamine, per-O-acetylated-4-F-N-acetylglucosamine], in assay [1] (setting [2]), the “body weight lost at the end of the experiment” value amounted to 16.32±1.41%; the “mass of epiWAT, BAT and liver” value is “decreased”; the “post-treatment fat mass decrease compared to pre-treatment mass” value came to 12.59±2.29%. For the same compound, the “day from which weight was robustly decreased” value in assay [1] (I.N. 1 mg/animal/day, obese mice) was determined as 7 days. Moreover, the “day on which 5 mg treatment began to significantly reduce more weight than 1 mg treatment” value in assay [1] (I.N. 5 mg vs 1 mg/animal/day, persisted to day 14) is 9 days. Further, in assay [1] (I.N. 5 mg/animal/day, 14 days, obese mice), the “post-treatment fat mass decrease compared to pre-treatment mass” value worked out at 23.21±9.27%. Moreover, the “day from which weight was robustly decreased” value in assay [1] (I.N. 5 mg/animal/day, obese mice) worked out at 3 days. Also, in assay [1] (setting [3]), the “body weight lost at the end of the experiment” value is 6.36±0.88%; the “tissue mass (adipose tissues and liver)” value is “remarkedly reduced tissue mass”. Further, the whole-body metabolic improvements result in assay [1] (intranasal, 14 days, diet-induced obese mice, compared with I.C.V. delivery) is on record as “recapitulated the whole-body metabolic improvements observed with intracerebroventricular delivery”. Besides, in the assay with CSPG-ECM (I.C.V. daily for 10 days), the “CSPG-ECM in other brain areas such as the RSG cortex” value is “did not reduce CSPG-ECM” and the “neurofibrosis (CSPG-ECM, WFA immunostaining) within the ARC” value is on record as “significantly attenuated neurofibrosis within the ARC; also recorded: preferentially attenuates CSPG-ECM in the ARC”. Further, in the assay on CSPG-ECM (I.C.V., highest dose), the “CSPG-ECM expression in the habenula” value is on record as “only partially attenuated expression”.

Values taken from patent publication US20260174677A1, “METHODS OF TREATING INSULIN RESISTANCE AND ASSOCIATED DISORDERS” (The University of Melboune, priority 2022, published 2026).
